Source: US12570650B2, “6-substituted pyridazine compounds as SMARCA2 and/or SMARCA4 degraders” (Aurigene Oncology Limited, priority 2020, dated 2026)

Tests used:
Format in all cases: cell-based
SMARCA4 = target: T1, SMARCA4 (Homo sapiens, UniProt P51532); assay: SMARCA4 degradation in VCaP cells by Western blot; conditions: 16 hours
T1 construct: Determination of SMARCA2 and SMARCA4 Degradation in VCaP Cells by Western Blot; endogenous in cells; host or cells: VCaP (ATCC CRL-2876)
Method: On the third day, compounds of present invention were added to cells from 10 mM stocks made in DMSO (Sigma Cat no. D2650). Each concentration of compound was tested with DMSO not exceeding final percentage of 0.3 in the cells. […] Equal amount of protein was loaded on SDS PAGE gel for electrophoresis. […] Percentage of SMARCA2 or SMARCA4 degradation was calculated using formula % Degradation=100−(normalized band intensity in treated sample/normalized band intensity in DMSO sample)*100.

RERF-LC-A1 cell line = assay: Anti proliferative activity, Cell Titer Glo assay, RERF-LC-A1; conditions: 144 h; RERF-LC-A1 cells, terminated day 6 without retreatment, CellTiter-Glo
Method: (§1) Example-P3: Determination of Anti Proliferative Activity of Compounds by Cell Titer Glo®(Promega) Assay
(§2) Cells were seeded into 96-well plates and the plate was incubated in 37 degrees incubator overnight. The next day, compounds were diluted 3-fold to cover 9-point concentration range in DMSO. Intermediate plate dilution was prepared in media followed with compound treatment in cells. Retreatment of cells with compound dilutions was performed on Day 4 and assay was terminated on day 8 for SK-MEL-5 cells using CellTiter-Glo and the plate was kept on orbital shaker for 20 minutes at RT. Assay was terminated on day 6 for RERF-LC-A1 without a compound retreatment. Luminescence signal was recorded on VICTOR^3 instrument. Percent inhibition of proliferation was calculated at each concentration and plotted against the compound concentration. EC50 value was calculated using GraphPad software.
Herein the group “++” refers to EC50 (RERF-LC-A1) values lower than 100 nM and “+” refers to EC50 (RERF-LC-A1) values greater than 100 nM.

SMARCA2 = target: T2, SMARCA2 (Homo sapiens, UniProt P51531); assay: SMARCA2 degradation in VCaP cells by Western blot; conditions: 16 hours
T2 construct: Determination of SMARCA2 and SMARCA4 Degradation in VCaP Cells by Western Blot; endogenous in cells; host or cells: VCaP (ATCC CRL-2876)
Method: Example-P2: Determination of SMARCA2 and SMARCA4 Degradation in VCaP Cells by Western Blot
VCaP (ATCC CRL-2876) was plated in 6 well plates using complete Dulbecco's Modified Eagle's Medium. On the third day, compounds of present invention were added to cells from 10 mM stocks made in DMSO (Sigma Cat no. D2650). Each concentration of compound was tested with DMSO not exceeding final percentage of 0.3 in the cells. Cells were incubated with the compound for 16 hours followed by harvesting with 1×RIPA lysis buffer (Thermo Fischer, catalogue number #89900) containing protease inhibitor cocktail (Sigma catalogue number #P-8340). Equal amount of protein was loaded on SDS PAGE gel for electrophoresis. Western blot was carried out for detection of either SMARCA2 (Cell signalling technologies, catalogue number #11966) or SMARCA4 antibody (Cell signalling technologies, catalogue number #52251). Beta-Tubulin antibody (Cell signalling technologies, catalogue number #86298) was used as loading control. Percentage of SMARCA2 or SMARCA4 degradation was calculated using formula % Degradation=100−(normalized band intensity in treated sample/normalized band intensity in DMSO sample)*100.

SK-MEL-5 cells = assay: Anti proliferative activity, Cell Titer Glo assay, SK-MEL-5; conditions: Homo sapiens, SK-MEL-5, SK-MEL-5 cells, retreatment Day 4, terminated day 8, CellTiter-Glo
Method: as §1, §2

T2 sequence (P51531 whole entry): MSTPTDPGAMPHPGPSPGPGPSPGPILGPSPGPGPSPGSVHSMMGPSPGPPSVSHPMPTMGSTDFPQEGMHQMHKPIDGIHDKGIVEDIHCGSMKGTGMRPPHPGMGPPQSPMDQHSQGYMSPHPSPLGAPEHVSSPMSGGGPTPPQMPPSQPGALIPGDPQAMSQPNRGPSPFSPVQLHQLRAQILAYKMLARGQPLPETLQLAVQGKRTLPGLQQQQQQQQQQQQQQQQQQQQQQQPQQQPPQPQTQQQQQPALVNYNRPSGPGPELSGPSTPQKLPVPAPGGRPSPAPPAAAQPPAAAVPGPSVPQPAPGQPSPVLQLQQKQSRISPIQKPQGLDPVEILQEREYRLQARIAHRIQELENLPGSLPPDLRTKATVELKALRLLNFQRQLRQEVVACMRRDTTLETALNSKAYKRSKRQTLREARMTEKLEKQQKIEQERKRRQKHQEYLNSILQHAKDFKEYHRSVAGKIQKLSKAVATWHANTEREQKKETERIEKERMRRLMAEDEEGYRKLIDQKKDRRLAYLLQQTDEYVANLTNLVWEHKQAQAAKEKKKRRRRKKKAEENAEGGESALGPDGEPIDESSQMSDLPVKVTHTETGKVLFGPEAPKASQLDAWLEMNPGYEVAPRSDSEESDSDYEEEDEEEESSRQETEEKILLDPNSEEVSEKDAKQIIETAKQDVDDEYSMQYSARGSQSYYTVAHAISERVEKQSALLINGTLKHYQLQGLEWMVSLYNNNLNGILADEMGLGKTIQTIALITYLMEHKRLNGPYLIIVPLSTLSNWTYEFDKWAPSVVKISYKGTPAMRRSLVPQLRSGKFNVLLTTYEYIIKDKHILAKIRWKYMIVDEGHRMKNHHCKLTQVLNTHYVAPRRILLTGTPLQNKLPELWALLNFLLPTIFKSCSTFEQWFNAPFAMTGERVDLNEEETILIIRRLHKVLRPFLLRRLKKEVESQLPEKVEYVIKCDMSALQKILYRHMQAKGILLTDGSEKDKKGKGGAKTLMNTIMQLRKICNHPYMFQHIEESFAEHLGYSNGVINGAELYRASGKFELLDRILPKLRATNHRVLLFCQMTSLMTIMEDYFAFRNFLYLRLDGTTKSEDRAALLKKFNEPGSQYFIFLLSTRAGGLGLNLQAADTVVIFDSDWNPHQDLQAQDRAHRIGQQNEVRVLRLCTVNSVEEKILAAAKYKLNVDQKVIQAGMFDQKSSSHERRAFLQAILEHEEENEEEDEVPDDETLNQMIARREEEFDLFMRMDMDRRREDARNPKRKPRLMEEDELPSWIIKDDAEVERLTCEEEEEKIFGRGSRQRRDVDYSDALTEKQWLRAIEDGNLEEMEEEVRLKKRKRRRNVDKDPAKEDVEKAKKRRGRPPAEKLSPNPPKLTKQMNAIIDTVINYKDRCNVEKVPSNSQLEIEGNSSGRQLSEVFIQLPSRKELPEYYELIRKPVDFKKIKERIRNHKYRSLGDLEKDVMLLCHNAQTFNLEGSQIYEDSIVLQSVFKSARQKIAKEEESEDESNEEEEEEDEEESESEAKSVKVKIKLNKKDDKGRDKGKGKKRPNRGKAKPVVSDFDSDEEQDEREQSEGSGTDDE
T1 sequence (P51532 whole entry): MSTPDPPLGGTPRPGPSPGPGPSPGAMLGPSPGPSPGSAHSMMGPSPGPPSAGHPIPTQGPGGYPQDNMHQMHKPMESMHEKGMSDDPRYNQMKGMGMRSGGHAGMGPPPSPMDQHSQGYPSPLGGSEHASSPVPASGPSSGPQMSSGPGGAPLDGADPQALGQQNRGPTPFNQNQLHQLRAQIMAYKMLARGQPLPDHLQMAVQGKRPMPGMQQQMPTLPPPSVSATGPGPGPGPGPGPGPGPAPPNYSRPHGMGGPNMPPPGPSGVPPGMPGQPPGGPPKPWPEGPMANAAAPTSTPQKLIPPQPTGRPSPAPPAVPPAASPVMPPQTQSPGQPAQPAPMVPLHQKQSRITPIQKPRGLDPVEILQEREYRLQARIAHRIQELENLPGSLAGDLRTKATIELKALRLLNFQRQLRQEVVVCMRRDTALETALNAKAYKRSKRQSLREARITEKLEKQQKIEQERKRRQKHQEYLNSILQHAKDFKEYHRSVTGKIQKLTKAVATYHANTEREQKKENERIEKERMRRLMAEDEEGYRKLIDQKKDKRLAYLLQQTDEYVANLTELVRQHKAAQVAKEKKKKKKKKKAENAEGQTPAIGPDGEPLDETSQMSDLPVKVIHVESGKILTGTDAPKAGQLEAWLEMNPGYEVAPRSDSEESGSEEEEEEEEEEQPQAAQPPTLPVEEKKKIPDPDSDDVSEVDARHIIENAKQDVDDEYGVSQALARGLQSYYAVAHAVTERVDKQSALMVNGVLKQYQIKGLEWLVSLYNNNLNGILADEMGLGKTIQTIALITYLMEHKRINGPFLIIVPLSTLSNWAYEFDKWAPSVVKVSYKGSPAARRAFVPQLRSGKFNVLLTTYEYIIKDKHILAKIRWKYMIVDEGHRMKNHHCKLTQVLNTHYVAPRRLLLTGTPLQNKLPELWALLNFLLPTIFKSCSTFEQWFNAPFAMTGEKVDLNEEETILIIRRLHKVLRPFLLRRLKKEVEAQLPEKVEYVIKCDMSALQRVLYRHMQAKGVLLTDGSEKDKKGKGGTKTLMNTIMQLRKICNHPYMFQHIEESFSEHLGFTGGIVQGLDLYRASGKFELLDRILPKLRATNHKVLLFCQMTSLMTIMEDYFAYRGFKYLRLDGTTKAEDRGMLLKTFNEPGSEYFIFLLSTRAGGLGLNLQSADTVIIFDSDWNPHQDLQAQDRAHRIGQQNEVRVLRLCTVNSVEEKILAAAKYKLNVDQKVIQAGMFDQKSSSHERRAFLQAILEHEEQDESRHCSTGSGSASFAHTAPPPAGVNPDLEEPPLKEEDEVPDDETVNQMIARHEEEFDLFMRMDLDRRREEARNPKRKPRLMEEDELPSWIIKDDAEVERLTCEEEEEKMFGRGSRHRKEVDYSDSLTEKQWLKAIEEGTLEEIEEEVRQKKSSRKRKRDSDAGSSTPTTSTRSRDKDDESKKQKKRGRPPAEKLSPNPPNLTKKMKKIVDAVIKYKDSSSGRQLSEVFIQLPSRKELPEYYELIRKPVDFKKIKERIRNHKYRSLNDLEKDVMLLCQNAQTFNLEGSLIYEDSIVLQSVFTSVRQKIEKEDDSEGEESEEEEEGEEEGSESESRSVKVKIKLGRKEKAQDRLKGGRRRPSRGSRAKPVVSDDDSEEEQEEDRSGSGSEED

| Compound | Percent degradation (at 100 nM) SMARCA4 (SMARCA4) [%] | Percent degradation (at 100 nM) SMARCA2 (SMARCA2) [%] | EC50 (SK-MEL-5 cells) [nM] | EC50 (RERF-LC-A1 cell line) [nM] |
| --- | --- | --- | --- | --- |
| Cc1ncsc1-c1ccc(CNC(=O)[C@@H]2C[C@@H](O)CN2C(=O)[C@@H](NC(=O)CN2CCC(c3ccc(-c4cnnc(-c5ccccc5O)c4)cc3)CC2)C(C)(C)C)cc1 [Compound 12, (2S,4R)-4-hydroxy-1-((S)-2-(2-(4-(4-(6-(2-hydroxyphenyl)pyridazin-4-yl)phenyl)piperidin-1-yl)acetamido)-3,3-dimethylbutanoyl)-N-(4-(4-methylthiazol-5-yl)benzyl)pyrrolidine-2-carboxamide] | 0 | 75 | > 500 | < 100 |
| Cc1ncsc1-c1ccc([C@H](C)NC(=O)[C@@H]2C[C@@H](O)CN2C(=O)C(c2cc(OCCOc3ccc(-c4cnnc(-c5ccccc5O)c4)cc3)no2)C(C)C)cc1 (mixture of isomers) [Compound 42, (2S,4R)-4-hydroxy-1-(2-(3-(2-(4-(6-(2-hydroxyphenyl)pyridazin-4-yl)phenoxy)ethoxy)isoxazol-5-yl)-3-methylbutanoyl)-N-((S)-1-(4-(4-methylthiazol-5-yl)phenyl)ethyl)pyrrolidine-2-carboxamide] | – | 57 | – | > 100 |
| Cc1ncsc1-c1ccc([C@H](C)NC(=O)[C@@H]2C[C@@H](O)CN2C(=O)[C@@H](NC(=O)CN2CC=C(c3ccc(-c4cnnc(-c5ccccc5O)c4)cc3)CC2)C(C)(C)C)cc1 [Compound 10, (2S,4R)-4-hydroxy-1-((S)-2-(2-(4-(4-(6-(2-hydroxyphenyl)pyridazin-4-yl)phenyl)-3,6-dihydropyridin-1(2H)-yl)acetamido)-3,3-dimethylbutanoyl)-N-((S)-1-(4-(4-methylthiazol-5-yl)phenyl)ethyl)pyrrolidine-2-carboxamide] | 0 | 83 | 250 to 500 | < 100 |
| Cc1ncsc1-c1ccc([C@H](C)NC(=O)[C@@H]2C[C@@H](O)CN2C(=O)[C@@H](NC(=O)CN2CCC(c3ccc(-c4cnnc(-c5ccccc5O)c4)cc3F)CC2)C(C)(C)C)cc1 [Compound 15, (2S,4R)-1-((S)-2-(2-(4-(2-fluoro-4-(6-(2-hydroxyphenyl)pyridazin-4-yl)phenyl)piperidin-1-yl)acetamido)-3,3-dimethylbutanoyl)-4-hydroxy-N-((S)-1-(4-(4-methylthiazol-5-yl)phenyl)ethyl)pyrrolidine-2-carboxamide] | 0 | 60 | > 500 | – |
| Cc1ncsc1-c1ccc([C@H](C)NC(=O)[C@@H]2C[C@@H](O)CN2C(=O)[C@@H](NC(=O)CN2CCN(c3ccc(-c4cnnc(-c5ccccc5O)c4)cn3)CC2)C(C)(C)C)cc1 [Compound 5, (2S,4R)-4-hydroxy-1-((S)-2-(2-(4-(5-(6-(2-hydroxyphenyl)pyridazin-4-yl)pyridin-2-yl)piperazin-1-yl)acetamido)-3,3-dimethylbutanoyl)-N-((S)-1-(4-(4-methylthiazol-5-yl)phenyl)ethyl)pyrrolidine-2-carboxamide] | 0 | 94 | < 250 | > 100 |
| Cc1ncsc1-c1ccc([C@H](C)NC(=O)[C@@H]2C[C@@H](O)CN2C(=O)[C@@H](NC(=O)CN2CC3CCC(C2)N3c2ccc(-c3cnnc(-c4ccccc4O)c3)cc2)C(C)(C)C)cc1 [Compound 24, (2S,4R)-4-hydroxy-1-((2S)-2-(2-(8-(4-(6-(2-hydroxyphenyl)pyridazin-4-yl)phenyl)-3,8-diazabicyclo[3.2.1]octan-3-yl)acetamido)-3,3-dimethylbutanoyl)-N-((S)-1-(4-(4-methylthiazol-5-yl)phenyl)ethyl)pyrrolidine-2-carboxamide] | 15 | 96 | < 250 | < 100 |

More lines, main results first:

| Percent degradation (at 100 nM) SMARCA4 (SMARCA4) [%] | Percent degradation (at 100 nM) SMARCA2 (SMARCA2) [%] | EC50 (SK-MEL-5 cells) [nM] | Compound | EC50 (RERF-LC-A1 cell line) [nM] |
| --- | --- | --- | --- | --- |
| 40 | 97 | < 250 | Cc1ncsc1-c1ccc([C@H](C)NC(=O)[C@@H]2C[C@@H](O)CN2C(=O)[C@@H](NC(=O)CC2CCN(c3ccc(-c4cnnc(-c5ccccc5O)c4)cc3)CC2)C(C)(C)C)cc1 [Compound 6, (2S,4R)-4-hydroxy-1-((S)-2-(2-(1-(4-(6-(2-hydroxyphenyl)pyridazin-4-yl)phenyl)piperidin-4-yl)acetamido)-3,3-dimethylbutanoyl)-N-((S)-1-(4-(4-methylthiazol-5-yl)phenyl)ethyl)pyrrolidine-2-carboxamide] | < 100 |
| – | – | > 500 | Cc1ncsc1-c1ccc([C@H](C)NC(=O)[C@@H]2C[C@@H](O)CN2C(=O)[C@@H](NC(=O)C(C)N2CCC(c3ccc(-c4cnnc(-c5ccccc5O)c4)cc3)CC2)C(C)(C)C)cc1 (stereo partly drawn) [Compound 14, (2S,4R)-4-hydroxy-1-((2S)-2-(2-(4-(4-(6-(2-hydroxyphenyl)pyridazin-4-yl)phenyl)piperidin-1-yl)propanamido)-3,3-dimethylbutanoyl)-N-((S)-1-(4-(4-methylthiazol-5-yl)phenyl)ethyl)pyrrolidine-2-carboxamide] | < 100 |
| 0 | 91 | < 250 | Cc1ncsc1-c1ccc([C@H](C)NC(=O)[C@@H]2C[C@@H](O)CN2C(=O)[C@@H](NC(=O)CN2CCC(c3ccc(-c4cnnc(-c5ccccc5O)c4)cc3)CC2)C(C)(C)C)cc1 [Compound 11, (2S,4R)-4-hydroxy-1-((S)-2-(2-(4-(4-(6-(2-hydroxyphenyl)pyridazin-4-yl)phenyl)piperidin-1-yl)acetamido)-3,3-dimethylbutanoyl)-N-((S)-1-(4-(4-methylthiazol-5-yl)phenyl)ethyl)pyrrolidine-2-carboxamide] | < 100 |
| 0 | 89 | 250 to 500 | Cc1ncsc1-c1ccc([C@H](C)NC(=O)[C@@H]2C[C@@H](O)CN2C(=O)[C@@H](NC(=O)CN2CC3(CC(c4ccc(-c5cnnc(-c6ccccc6O)c5)cc4)C3)C2)C(C)(C)C)cc1 [Compound 31, (2S,4R)-4-hydroxy-1-((S)-2-(2-(6-(4-(6-(2-hydroxyphenyl)pyridazin-4-yl)phenyl)-2-azaspiro[3.3]heptan-2-yl)acetamido)-3,3-dimethylbutanoyl)-N-((S)-1-(4-(4-methylthiazol-5-yl)phenyl)ethyl)pyrrolidine-2-carboxamide] | – |
| 4 | 21 | > 500 | Cc1ncsc1-c1ccc([C@H](C)NC(=O)[C@@H]2C[C@@H](O)CN2C(=O)[C@@H](NC(=O)CN2CC(c3ccc(-c4cnnc(-c5ccccc5O)c4)cc3)C2)C(C)(C)C)cc1 [Compound 21, (2S,4R)-4-hydroxy-1-((S)-2-(2-(3-(4-(6-(2-hydroxyphenyl)pyridazin-4-yl)phenyl)azetidin-1-yl)acetamido)-3,3-dimethylbutanoyl)-N-((S)-1-(4-(4-methylthiazol-5-yl)phenyl)ethyl)pyrrolidine-2-carboxamide] | – |
| 0 | 15 | > 500 | Cc1ncsc1-c1ccc([C@H](C)NC(=O)[C@@H]2C[C@@H](O)CN2C(=O)[C@@H](NC(=O)CN2CCC(c3cccc(-c4cnnc(-c5ccccc5O)c4)c3)CC2)C(C)(C)C)cc1 [Compound 23, (2S,4R)-4-hydroxy-1-((S)-2-(2-(4-(3-(6-(2-hydroxyphenyl)pyridazin-4-yl)phenyl)piperidin-1-yl)acetamido)-3,3-dimethylbutanoyl)-N-((S)-1-(4-(4-methylthiazol-5-yl)phenyl)ethyl)pyrrolidine-2-carboxamide] | – |
